Target: Transient receptor potential cation channel subfamily A member 1 (Homo sapiens, UniProt O75762)
Assay: Inhibition Assay: IC50 values (effective concentration) of compounds on the human and rat TRPA1 channels were determined using a FLIPR Tetra instrument. CHO cells expressing TRPA1 were plated into 384-well plates, incubated overnight at 37 C, and loaded with BD calcium indicator dye for 1 hr at 37° C. followed by 15 minutes. at room temperature. The assay buffer was Hank's Balanced Salt Solution (HBSS) containing 20 mM HEPES (pH readjusted to 7.4) along with 0.02% BSA.Following dye load and plate cool down, compounds were added to the cells using FLIPR Tetra. Plates were then incubated with compounds for 20 minutes at room temperature prior to adding agonist. Following this incubation, ˜EC80 concentration of cinnamaldehyde (75 uM for human TRPA1 and 45 uM for rat TRPA1) was added to active the channels and block of cinnamaldehyde induced calcium influx was measured.

Transient receptor potential cation channel subfamily A member 1, sequence (O75762 whole entry): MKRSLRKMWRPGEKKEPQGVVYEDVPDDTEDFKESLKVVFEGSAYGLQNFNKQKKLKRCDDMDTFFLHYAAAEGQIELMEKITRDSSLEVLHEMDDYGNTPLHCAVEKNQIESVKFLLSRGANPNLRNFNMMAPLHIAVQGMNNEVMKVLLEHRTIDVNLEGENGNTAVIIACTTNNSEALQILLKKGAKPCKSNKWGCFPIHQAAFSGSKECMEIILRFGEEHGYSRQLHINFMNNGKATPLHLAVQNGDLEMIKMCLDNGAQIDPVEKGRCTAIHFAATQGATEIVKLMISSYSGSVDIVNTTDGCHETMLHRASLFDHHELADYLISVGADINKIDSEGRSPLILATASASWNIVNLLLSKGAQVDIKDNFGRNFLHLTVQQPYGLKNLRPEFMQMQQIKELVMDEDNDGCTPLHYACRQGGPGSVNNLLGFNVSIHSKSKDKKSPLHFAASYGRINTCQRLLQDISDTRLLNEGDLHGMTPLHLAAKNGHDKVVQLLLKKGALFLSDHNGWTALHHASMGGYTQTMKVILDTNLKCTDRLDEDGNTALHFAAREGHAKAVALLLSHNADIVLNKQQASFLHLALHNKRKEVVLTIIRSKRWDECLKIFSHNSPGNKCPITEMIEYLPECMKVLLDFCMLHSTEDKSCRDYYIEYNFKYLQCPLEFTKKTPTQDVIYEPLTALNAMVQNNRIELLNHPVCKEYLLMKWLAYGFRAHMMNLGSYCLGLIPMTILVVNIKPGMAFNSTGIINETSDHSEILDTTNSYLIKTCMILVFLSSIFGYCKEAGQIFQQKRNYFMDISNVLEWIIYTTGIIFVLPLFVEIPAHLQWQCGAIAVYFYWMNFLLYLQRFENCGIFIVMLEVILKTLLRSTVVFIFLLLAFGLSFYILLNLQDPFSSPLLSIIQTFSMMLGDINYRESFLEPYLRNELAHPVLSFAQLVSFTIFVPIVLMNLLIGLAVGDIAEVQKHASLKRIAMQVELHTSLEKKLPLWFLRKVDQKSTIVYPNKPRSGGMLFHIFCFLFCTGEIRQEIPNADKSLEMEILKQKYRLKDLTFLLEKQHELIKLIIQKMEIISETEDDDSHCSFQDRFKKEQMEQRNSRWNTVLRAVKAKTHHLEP

SMILES	IC50
COc1nn(-c2cnc(C(F)(F)F)nc2)cc1CC(=O)N[C@@H]1CC[C@@H]1S(=O)(=O)c1ccc(F)cc1	246 nM
O=C(Cn1cc(-c2ccc(C(F)(F)F)cc2)cn1)N[C@@H]1CC[C@@H]1S(=O)(=O)c1ccc(F)cc1	200 nM
